Test results as given in BindingDB's records for PubMed 11504829 (University of Melbourne, 2001).

Experiments:
[1] = molecular target: T1, Muscarinic acetylcholine receptor M5 (Homo sapiens, UniProt P08912)
T1 sequence (P08912 whole entry): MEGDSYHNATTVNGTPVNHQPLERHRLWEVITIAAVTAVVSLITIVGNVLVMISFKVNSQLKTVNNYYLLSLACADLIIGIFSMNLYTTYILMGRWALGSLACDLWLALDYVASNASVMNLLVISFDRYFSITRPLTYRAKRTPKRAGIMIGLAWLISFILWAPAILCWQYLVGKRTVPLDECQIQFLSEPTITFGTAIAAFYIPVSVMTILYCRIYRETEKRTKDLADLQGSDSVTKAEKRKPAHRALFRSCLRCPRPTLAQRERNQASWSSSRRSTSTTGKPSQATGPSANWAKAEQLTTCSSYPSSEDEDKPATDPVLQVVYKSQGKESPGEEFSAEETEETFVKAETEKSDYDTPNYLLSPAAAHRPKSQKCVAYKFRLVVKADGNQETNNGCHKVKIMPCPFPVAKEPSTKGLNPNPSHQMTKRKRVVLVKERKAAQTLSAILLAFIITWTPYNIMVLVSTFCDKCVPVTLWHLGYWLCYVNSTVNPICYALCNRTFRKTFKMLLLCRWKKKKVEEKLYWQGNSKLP

[2] = molecular target: T2, Muscarinic acetylcholine receptor M1 (Homo sapiens, UniProt P11229)
T2 sequence (P11229 whole entry): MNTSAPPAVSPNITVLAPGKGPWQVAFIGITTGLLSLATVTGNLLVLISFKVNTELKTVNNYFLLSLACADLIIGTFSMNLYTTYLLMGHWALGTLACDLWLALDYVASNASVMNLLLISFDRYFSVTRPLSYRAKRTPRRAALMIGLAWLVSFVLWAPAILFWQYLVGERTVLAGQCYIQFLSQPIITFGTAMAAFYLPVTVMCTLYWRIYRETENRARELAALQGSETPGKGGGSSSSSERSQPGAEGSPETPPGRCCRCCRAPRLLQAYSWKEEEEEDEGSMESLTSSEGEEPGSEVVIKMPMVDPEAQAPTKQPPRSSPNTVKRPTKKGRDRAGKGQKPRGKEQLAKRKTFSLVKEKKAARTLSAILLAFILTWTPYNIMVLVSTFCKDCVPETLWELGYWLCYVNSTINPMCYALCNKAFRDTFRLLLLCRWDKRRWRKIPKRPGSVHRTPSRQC

[3] = molecular target: T3, Muscarinic acetylcholine receptor M2 (Homo sapiens, UniProt P08172)
T3 sequence (P08172 whole entry): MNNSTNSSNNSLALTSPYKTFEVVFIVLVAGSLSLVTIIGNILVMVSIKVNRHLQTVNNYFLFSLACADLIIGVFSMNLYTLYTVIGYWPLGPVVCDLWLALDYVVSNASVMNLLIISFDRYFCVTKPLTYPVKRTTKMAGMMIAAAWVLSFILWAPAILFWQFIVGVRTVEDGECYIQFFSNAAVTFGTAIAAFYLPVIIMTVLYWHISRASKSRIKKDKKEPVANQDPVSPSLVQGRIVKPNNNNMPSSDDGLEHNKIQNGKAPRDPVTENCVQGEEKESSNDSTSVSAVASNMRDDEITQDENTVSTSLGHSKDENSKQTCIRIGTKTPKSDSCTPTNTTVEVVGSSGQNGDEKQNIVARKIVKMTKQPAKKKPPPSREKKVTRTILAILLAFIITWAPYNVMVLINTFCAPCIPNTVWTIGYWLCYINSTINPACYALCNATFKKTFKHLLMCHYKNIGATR

[4] = molecular target: Muscarinic acetylcholine receptor M3 (Homo sapiens, UniProt P20309)
[5] = molecular target: T4, Muscarinic acetylcholine receptor M4 (Homo sapiens, UniProt P08173)
T4 sequence (P08173 whole entry): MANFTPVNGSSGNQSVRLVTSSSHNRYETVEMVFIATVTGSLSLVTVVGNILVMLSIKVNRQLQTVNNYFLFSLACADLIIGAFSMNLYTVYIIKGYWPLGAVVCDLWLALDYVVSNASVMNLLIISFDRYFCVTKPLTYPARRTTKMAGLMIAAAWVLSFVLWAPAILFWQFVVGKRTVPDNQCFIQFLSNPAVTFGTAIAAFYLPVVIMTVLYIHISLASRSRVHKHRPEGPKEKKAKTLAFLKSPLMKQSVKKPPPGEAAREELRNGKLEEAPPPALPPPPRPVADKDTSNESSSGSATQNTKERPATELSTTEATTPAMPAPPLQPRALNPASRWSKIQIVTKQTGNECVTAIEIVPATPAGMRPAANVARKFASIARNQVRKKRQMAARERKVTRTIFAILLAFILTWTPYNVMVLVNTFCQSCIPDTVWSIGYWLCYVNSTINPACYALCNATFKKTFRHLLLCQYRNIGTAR

[6] = molecular target: T5, Muscarinic acetylcholine receptor M2 (Rattus norvegicus, UniProt P10980)
T5 sequence (P10980 whole entry): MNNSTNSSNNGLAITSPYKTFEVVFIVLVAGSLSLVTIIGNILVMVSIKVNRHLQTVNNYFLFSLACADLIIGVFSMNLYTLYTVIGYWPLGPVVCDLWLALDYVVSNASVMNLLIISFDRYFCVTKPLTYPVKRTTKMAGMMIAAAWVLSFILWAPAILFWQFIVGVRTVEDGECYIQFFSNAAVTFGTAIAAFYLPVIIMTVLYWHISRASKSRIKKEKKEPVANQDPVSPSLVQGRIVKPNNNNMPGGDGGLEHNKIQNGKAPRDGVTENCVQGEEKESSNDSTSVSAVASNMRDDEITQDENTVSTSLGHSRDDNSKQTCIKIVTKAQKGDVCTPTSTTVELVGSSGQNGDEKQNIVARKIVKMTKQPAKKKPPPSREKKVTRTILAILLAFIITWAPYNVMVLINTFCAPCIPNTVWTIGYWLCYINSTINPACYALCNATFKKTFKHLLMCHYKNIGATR

Sequence of Muscarinic acetylcholine receptor M3 (P20309 whole entry): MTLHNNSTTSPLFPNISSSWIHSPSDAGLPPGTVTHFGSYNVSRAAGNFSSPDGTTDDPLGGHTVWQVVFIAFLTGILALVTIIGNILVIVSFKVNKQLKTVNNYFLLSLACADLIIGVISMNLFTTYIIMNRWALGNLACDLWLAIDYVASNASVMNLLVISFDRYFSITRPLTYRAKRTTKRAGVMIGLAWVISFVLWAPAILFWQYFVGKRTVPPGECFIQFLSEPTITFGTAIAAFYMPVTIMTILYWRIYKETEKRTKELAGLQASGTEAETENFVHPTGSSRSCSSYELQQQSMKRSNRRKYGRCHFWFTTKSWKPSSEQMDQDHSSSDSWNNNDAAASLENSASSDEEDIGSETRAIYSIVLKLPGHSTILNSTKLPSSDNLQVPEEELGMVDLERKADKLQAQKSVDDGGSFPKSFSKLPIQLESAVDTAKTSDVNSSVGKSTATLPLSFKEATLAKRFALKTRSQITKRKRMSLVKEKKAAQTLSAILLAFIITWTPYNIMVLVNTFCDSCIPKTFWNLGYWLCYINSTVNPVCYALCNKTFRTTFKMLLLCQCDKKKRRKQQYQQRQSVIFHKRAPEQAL

| Structure (SMILES) | Ki [1] [nM] | Ki [2] [nM] | Ki [3] [nM] | Ki [4] [nM] | Ki [5] [nM] | Ki [6] [nM] |
| --- | --- | --- | --- | --- | --- | --- |
| C(#Cc1ccccc1)COc1nsnc1C1CN2CCC1CC2 (stereo unspecified) | 14.8 | 41.7 | 58.9 | 77.6 | 49 | – |
| C(#Cc1ccc(C#CCOc2nsnc2C2CN3CCC2CC3)cc1)COc1nsnc1C1CN2CCC1CC2 (stereo unspecified) [NNC 11-1585] | 5.25 | 0.129 | 0.079 | 4.68 | 2.57 | – |
| C(#Cc1cccc(C#CCOc2nsnc2C2CN3CCC2CC3)c1)COc1nsnc1C1CN2CCC1CC2 (stereo unspecified) [NNC 11-1607] | 6.03 | 2.4 | 5.75 | 8.13 | 8.13 | 9.55 |
